From patent publication US11891365B2, “3-alkyl-4-amido-bicyclic [4,5,0] hydroxamic acids as HDAC inhibitors” (Valo Health, Inc., priority 2015, dated 2024)

target: T1, Full length human recombinant HDAC6 protein (Homo sapiens, UniProt Q9UBN7); assay: In vitro histone deacetylase assay: enzymatic HDAC6 electrophoretic mobility shift assay; format: biochemical; conditions: 1 nM enzyme, 2 μM peptide substrate RHKK(Ac)-NH2, 25° C., 12 concentrations; read-out: Inhibitory Concentration (IC50) Values against HDAC6, Activity Range
T1 sequence (Q9UBN7 1-1215): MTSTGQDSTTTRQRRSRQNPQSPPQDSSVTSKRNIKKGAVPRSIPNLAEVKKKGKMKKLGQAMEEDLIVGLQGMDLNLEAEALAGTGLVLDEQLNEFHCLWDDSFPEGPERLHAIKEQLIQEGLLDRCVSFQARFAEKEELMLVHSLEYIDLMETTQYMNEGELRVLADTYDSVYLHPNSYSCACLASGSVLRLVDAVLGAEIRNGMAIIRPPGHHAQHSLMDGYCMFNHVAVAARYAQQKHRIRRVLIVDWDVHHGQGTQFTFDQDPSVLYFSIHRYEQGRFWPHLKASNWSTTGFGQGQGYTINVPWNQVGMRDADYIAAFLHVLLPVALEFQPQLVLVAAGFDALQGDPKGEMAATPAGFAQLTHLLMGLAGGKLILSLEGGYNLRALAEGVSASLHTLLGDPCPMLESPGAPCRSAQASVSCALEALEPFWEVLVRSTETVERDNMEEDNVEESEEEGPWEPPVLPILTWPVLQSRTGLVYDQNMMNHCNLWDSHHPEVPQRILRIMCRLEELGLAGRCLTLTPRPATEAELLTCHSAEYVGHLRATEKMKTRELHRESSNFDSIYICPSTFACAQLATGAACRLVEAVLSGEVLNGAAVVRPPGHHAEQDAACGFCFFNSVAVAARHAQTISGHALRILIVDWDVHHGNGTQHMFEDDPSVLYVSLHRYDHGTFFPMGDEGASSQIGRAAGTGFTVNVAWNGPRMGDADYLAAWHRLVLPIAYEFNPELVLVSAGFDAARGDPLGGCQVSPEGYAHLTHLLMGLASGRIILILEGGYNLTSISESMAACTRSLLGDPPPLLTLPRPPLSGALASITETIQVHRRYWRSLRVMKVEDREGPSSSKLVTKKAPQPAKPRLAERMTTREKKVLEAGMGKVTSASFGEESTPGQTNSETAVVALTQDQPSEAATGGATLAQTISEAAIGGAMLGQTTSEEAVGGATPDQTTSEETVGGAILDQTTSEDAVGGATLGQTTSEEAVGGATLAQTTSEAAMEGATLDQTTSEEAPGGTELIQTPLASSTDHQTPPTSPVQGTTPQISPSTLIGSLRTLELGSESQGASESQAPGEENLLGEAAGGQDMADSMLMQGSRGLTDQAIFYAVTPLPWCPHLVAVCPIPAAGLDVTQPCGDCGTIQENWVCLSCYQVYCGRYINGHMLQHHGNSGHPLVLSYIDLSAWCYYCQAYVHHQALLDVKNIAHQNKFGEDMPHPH

IC50 [nM] | SMILES
≤ 100 | COCCC(=O)N1Cc2ccc(C(=O)NO)cc2OC[C@@H]1C [(S)-N-hydroxy-4-(3-methoxypropanoyl)-3-methyl-2,3,4,5-tetrahydrobenzo[f][1,4]oxazepine-8-carboxamide]
≤ 100 | COCC1(C(=O)N2Cc3ccc(C(=O)NO)cc3OC[C@@H]2C)CCOCC1 [(S)-N-hydroxy-4-(4-(methoxymethyl)tetrahydro-2H-pyran-4-carbonyl)-3-methyl-2,3,4,5-tetrahydrobenzo[f][1,4]oxazepine-8-carboxamide]
≤ 100 | COCC1(C(=O)N2CCOc3cc(C(=O)NO)ccc3[C@@H]2C)CCOCC1 [(S)-N-hydroxy-4-(4-(methoxymethyl)tetrahydro-2H-pyran-4-carbonyl)-5-methyl-2,3,4,5-tetrahydrobenzo[f][1,4]oxazepine-8-carboxamide]
≤ 100 | COC1(C(=O)N2Cc3ccc(C(=O)NO)cc3OC[C@@H]2C)CCOCC1 [(S)-N-hydroxy-4-(4-methoxytetrahydro-2H-pyran-4-carbonyl)-3-methyl-2,3,4,5-tetrahydrobenzo[f][1,4]oxazepine-8-carboxamide]
≤ 100 | CC(C)[C@@H]1C[C@@H](C(=O)N2Cc3ccc(C(=O)NO)cc3OC[C@@H]2C)CCO1 [(S)-N-hydroxy-4-((2S,4S)-2-isopropyltetrahydro-2H-pyran-4-carbonyl)-3-methyl-2,3,4,5-tetrahydrobenzo[f][1,4]oxazepine-8-carboxamide]
≤ 100 | O=C(NO)c1ccc2c(c1)OCCN(C(=O)[C@H]1CCCOC1)C2 [(S)-N-hydroxy-4-(tetrahydro-2H-pyran-3-carbonyl)-2,3,4,5-tetrahydrobenzo[f][1,4]oxazepine-8-carboxamide]
≤ 100 | O=C(NO)c1ccc2c(c1)OCCN(C(=O)[C@H]1CCOC1)C2 [(S)-N-hydroxy-4-(tetrahydrofuran-3-carbonyl)-2,3,4,5-tetrahydrobenzo[f][1,4]oxazepine-8-carboxamide]
≤ 100 | CC(C)C(=O)N1Cc2ccc(C(=O)NO)cc2OC[C@@H]1C [(S)-N-hydroxy-4-isobutyryl-3-methyl-2,3,4,5-tetrahydrobenzo[f][1,4]oxazepine-8-carboxamide]
> 500 | CC(C)[C@H]1c2ccc(C(=O)NO)cc2OCCN1C(=O)C1COC1 [(S)-N-hydroxy-5-isopropyl-4-(oxetane-3-carbonyl)-2,3,4,5-tetrahydrobenzo[f][1,4]oxazepine-8-carboxamide]
> 500 | CC(C)[C@H]1c2ccc(C(=O)NO)cc2OCCN1C(=O)C1CCOCC1 [(S)-N-hydroxy-5-isopropyl-4-(tetrahydro-2H-pyran-4-carbonyl)-2,3,4,5-tetrahydrobenzo[f][1,4]oxazepine-8-carboxamide]
100 to 500 | C[C@H]1c2cc(C(=O)NO)ccc2OCCN1C(=O)C1(C)CCC1 [(S)-N-hydroxy-5-methyl-4-(1-methylcyclobutane-1-carbonyl)-2,3,4,5-tetrahydrobenzo[f][1,4]oxazepine-7-carboxamide]
≤ 100 | C[C@H]1c2ccc(C(=O)NO)cc2OCCN1C(=O)C1(C)CCC1 [(S)-N-hydroxy-5-methyl-4-(1-methylcyclobutane-1-carbonyl)-2,3,4,5-tetrahydrobenzo[f][1,4]oxazepine-8-carboxamide]
≤ 100 | C[C@H]1c2ccc(C(=O)NO)cc2OCCN1C(=O)C1(C)COC1 [(S)-N-hydroxy-5-methyl-4-(3-methyloxetane-3-carbonyl)-2,3,4,5-tetrahydrobenzo[f][1,4]oxazepine-8-carboxamide]
≤ 100 | C[C@H]1c2ccc(C(=O)NO)cc2OCCN1C(=O)C1(C)CCOCC1 [(S)-N-hydroxy-5-methyl-4-(4-methyltetrahydro-2H-pyran-4-carbonyl)-2,3,4,5-tetrahydrobenzo[f][1,4]oxazepine-8-carboxamide]
≤ 100 | C[C@H]1c2ccc(C(=O)NO)cc2OCCN1C(=O)[C@]1(C)CCCOC1 [(S)-N-hydroxy-5-methyl-4-((R)-3-methyltetrahydro-2H-pyran-3-carbonyl)-2,3,4,5-tetrahydrobenzo[f][1,4]oxazepine-8-carboxamide]
≤ 100 | C[C@H]1c2ccc(C(=O)NO)cc2OCCN1C(=O)[C@@H]1CCCOC1 [(S)-N-hydroxy-5-methyl-4-((R)-tetrahydro-2H-pyran-3-carbonyl)-2,3,4,5-tetrahydrobenzo[f][1,4]oxazepine-8-carboxamide]

IC50 [nM] | SMILES
≤ 100 | C[C@H]1c2ccc(C(=O)NO)cc2OCCN1C(=O)[C@@H]1CCOC1 [(S)-N-hydroxy-5-methyl-4-((R)-tetrahydrofuran-3-carbonyl)-2,3,4,5-tetrahydrobenzo[f][1,4]oxazepine-8-carboxamide]
≤ 100 | C[C@H]1c2ccc(C(=O)NO)cc2OCCN1C(=O)[C@@]1(C)CCCOC1 [(S)-N-hydroxy-5-methyl-4-((S)-3-methyltetrahydro-2H-pyran-3-carbonyl)-2,3,4,5-tetrahydrobenzo[f][1,4]oxazepine-8-carboxamide]
≤ 100 | C[C@H]1c2ccc(C(=O)NO)cc2OCCN1C(=O)[C@H]1CCCOC1 [(S)-N-hydroxy-5-methyl-4-((S)-tetrahydro-2H-pyran-3-carbonyl)-2,3,4,5-tetrahydrobenzo[f][1,4]oxazepine-8-carboxamide]
≤ 100 | C[C@H]1c2ccc(C(=O)NO)cc2OCCN1C(=O)[C@H]1CCOC1 [(S)-N-hydroxy-5-methyl-4-((S)-tetrahydrofuran-3-carbonyl)-2,3,4,5-tetrahydrobenzo[f][1,4]oxazepine-8-carboxamide]
≤ 100 | C[C@H]1c2ccc(C(=O)NO)cc2OCCN1C(=O)C1COC1 [(S)-N-hydroxy-5-methyl-4-(oxetane-3-carbonyl)-2,3,4,5-tetrahydrobenzo[f][1,4]oxazepine-8-carboxamide]
> 500 | C[C@H]1c2cc(C(=O)NO)ccc2OCCN1C(=O)C1CCOCC1 [(S)-N-hydroxy-5-methyl-4-(tetrahydro-2H-pyran-4-carbonyl)-2,3,4,5-tetrahydrobenzo[f][1,4]oxazepine-7-carboxamide]
≤ 100 | C[C@H]1c2ccc(C(=O)NO)cc2OCCN1C(=O)C1CCOCC1 [(S)-N-hydroxy-5-methyl-4-(tetrahydro-2H-pyran-4-carbonyl)-2,3,4,5-tetrahydrobenzo[f][1,4]oxazepine-8-carboxamide]
100 to 500 | CN(C)C(=O)C1CN(C(=O)C2CCOCC2)Cc2ccc(C(=O)NO)cc2O1 (stereo not shown) [N8-hydroxy-N2,N2-dimethyl-4-(tetrahydro-2H-pyran-4-carbonyl)-2,3,4,5-tetrahydrobenzo[f][1,4]oxazepine-2,8-dicarboxamide]
> 500 | CC1(C(=O)N2Cc3ccc(C(=O)NO)cc3OCC2(C)C)CCC1 [N-hydroxy-3,3-dimethyl-4-(1-methylcyclobutane-1-carbonyl)-2,3,4,5-tetrahydrobenzo[f][1,4]oxazepine-8-carboxamide]
≤ 100 | O=C(NO)c1ccc2c(c1)OCCN(C(=O)C1(c3ccccc3C(F)(F)F)CC1)C2 [N-hydroxy-4-(1-(2-(trifluoromethyl)phenyl)cyclopropane-1-carbonyl)-2,3,4,5-tetrahydrobenzo[f][1,4]oxazepine-8-carboxamide]
≤ 100 | O=C(NO)c1ccc2c(c1)OCCN(C(=O)C1(c3cccc(C(F)(F)F)c3)CC1)C2 [N-hydroxy-4-(1-(3-(trifluoromethyl)phenyl)cyclopropane-1-carbonyl)-2,3,4,5-tetrahydrobenzo[f][1,4]oxazepine-8-carboxamide]
≤ 100 | COc1cccc(C2(C(=O)N3CCOc4cc(C(=O)NO)ccc4C3)CC2)c1 [N-hydroxy-4-(1-(3-methoxyphenyl)cyclopropane-1-carbonyl)-2,3,4,5-tetrahydrobenzo[f][1,4]oxazepine-8-carboxamide]
≤ 100 | O=C(NO)c1ccc2c(c1)OCCN(C(=O)C1(c3ccc(C(F)(F)F)cc3)CC1)C2 [N-hydroxy-4-(1-(4-(trifluoromethyl)phenyl)cyclopropane-1-carbonyl)-2,3,4,5-tetrahydrobenzo[f][1,4]oxazepine-8-carboxamide]
≤ 100 | COc1ccc(C2(C(=O)N3CCOc4cc(C(=O)NO)ccc4C3)CC2)cc1 [N-hydroxy-4-(1-(4-methoxyphenyl)cyclopropane-1-carbonyl)-2,3,4,5-tetrahydrobenzo[f][1,4]oxazepine-8-carboxamide]
≤ 100 | COCC1(C(=O)N2CCOc3cc(C(=O)NO)ccc3C2)CCC1 [N-hydroxy-4-(1-(methoxymethyl)cyclobutane-1-carbonyl)-2,3,4,5-tetrahydrobenzo[f][1,4]oxazepine-8-carboxamide]
